Test results published in US12295396B2, “Antagonists of T2R54 and compositions and uses thereof” (Firmenich Incorporated, priority 2018, dated 2025).

molecular target: T1, hT2R54 (Homo sapiens, UniProt P59534); test: Cell-based assay for measuring hT2R54 inhibition (FLIPR calcium, Fluo4AM, acetaminophen as bitter agonist); details: FIG. 1; cells expressing hT2R54, not control host cells
T1 construct: expressed in transfected cells; it overexpresses a promiscuous G protein
T1 sequence (P59534 1-338): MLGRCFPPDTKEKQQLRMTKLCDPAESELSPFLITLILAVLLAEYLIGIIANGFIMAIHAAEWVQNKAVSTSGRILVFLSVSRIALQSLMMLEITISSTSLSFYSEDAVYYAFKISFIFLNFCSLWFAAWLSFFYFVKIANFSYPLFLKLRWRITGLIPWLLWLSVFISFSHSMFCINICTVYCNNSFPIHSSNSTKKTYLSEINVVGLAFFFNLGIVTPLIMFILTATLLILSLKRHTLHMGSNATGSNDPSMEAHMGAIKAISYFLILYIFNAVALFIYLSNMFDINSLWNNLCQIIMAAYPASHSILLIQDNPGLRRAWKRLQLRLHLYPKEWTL
Protocol: Cells stably expressing hT2R54 and a promiscuous G protein were seeded in 384 well plates 24 hours prior to the experiment. Cells were loaded with the calcium indicator Fluo4AM, washed and loaded in a FLIPR instrument with a compound plate containing increasing doses of acetaminophen in quadruplicates and prepared at 2× of final concentration. Baseline was recorded for 10 seconds, then 25 μl of […] was added onto 25 μl of cells and resulting changes in fluorescence were monitored over an additional 3 minutes. The host cell line overexpressing the G protein but not hT2R54 was treated as described above.
The ability of a test compound that blocks bitter taste elicited through hT2R54 was measured in this assay, as follows. Cells stably expressing hT2R54 and a promiscuous G protein were seeded in 384 well plates 24 hours prior to the experiment. Cells were loaded with the calcium indicator Fluo4AM, washed and loaded in a FLIPR instrument with a compound plate containing increasing doses of acetaminophen in buffer and increasing doses of acetaminophen with depicted fixed concentrations of Cmpd 109 (Table 4). Base line was recorded for 10 seconds, then 25 μl of compound and compound mixtures were added onto 25 μl of cells and resulting changes in fluorescence were monitored over an additional 3 minutes. The concentration of test compound that blocks half of the response when the bitter compound alone is present is presented as the EC50 or IC50 value.
In the examples above, the EC50 of compounds for blocking bitter taste elicited through T2R54 was measured in the same manner.

Row | Structure (SMILES) | response of hT2R54-expressing cells to bitter tastant
1 | CC(=O)Nc1ccc(O)cc1 [acetaminophen, reference compound] | measurable change in intracellular calcium

same assay, conditions: Table 2; cells stably expressing hT2R54 and a promiscuous G protein; read-out: hT2R54 IC50

Row | Structure (SMILES) | IC50
2 | COc1ccc(F)cc1C(=O)N1CCN(CC(=O)Nc2cc3c(cc2C(C)=O)OCO3)CC1 [compound 2, N-(6-Acetylbenzo[d][1,3]dioxol-5-yl)-2-(4-(5-fluoro-2-methoxybenzoyl)piperazin-1-yl)acetamide] | 27 nM
3 | CCCOC(=O)N1CCN(CC(=O)Nc2cc3c(cc2C(C)=O)OCO3)CC1 [compound 3, Propyl 4-(2-((6-Acetylbenzo[d][1,3]dioxol-5-yl)amino)-2-oxoethyl)piperazine-1-carboxylate] | 15 nM
4 | CC(=O)c1cc2c(cc1NC(=O)CN1CCN(C(=O)NC(C)C)CC1)OCO2 [compound 4, 4-(2-((6-Acetylbenzo[d][1,3]dioxol-5-yl)amino)-2-oxoethyl)-N-isopropylpiperazine-1-carboxamide] | 34 nM
5 | CC(=O)c1cc2c(cc1NC(=O)CN1CCN(S(=O)(=O)C(C)C)CC1)OCO2 [compound 5, N-(6-acetylbenzo[d][1,3]dioxol-5-yl)-2-(4-(isopropylsulfonyl)piperazin-1-yl)acetamide] | 130 nM
6 | COc1cc2c(cc1NC(=O)CN1CCN(C(=O)CC(C)C)CC1)OCO2 [compound 6, N-(6-Methoxybenzo[d][1,3]dioxol-5-yl)-2-(4-(3-methylbutanoyl)piperazin-1-yl)acetamide] | 490 nM
7 | CC(=O)c1cc2c(cc1NC(=O)CN1CCN(C(C)=O)CC1)OCO2 [compound 7] | 90 nM
8 | CCC(=O)N1CCN(CC(=O)Nc2cc3c(cc2C(C)=O)OCO3)CC1 [compound 8] | 50 nM
9 | CCCC(=O)N1CCN(CC(=O)Nc2cc3c(cc2C(C)=O)OCO3)CC1 [compound 9] | 29 nM
10 | CCCCC(=O)N1CCN(CC(=O)Nc2cc3c(cc2C(C)=O)OCO3)CC1 [compound 10] | 9 nM
11 | CC(=O)c1cc2c(cc1NC(=O)CN1CCN(C(=O)C(C)C)CC1)OCO2 [compound 11] | 40 nM
12 | CC(=O)c1cc2c(cc1NC(=O)CN1CCN(C(=O)C3CC3)CC1)OCO2 [compound 12] | 40 nM
13 | CC(=O)c1cc2c(cc1NC(=O)CN1CCN(C(=O)C(C)(C)C)CC1)OCO2 [compound 13] | 23 nM
14 | CC(=O)c1cc2c(cc1NC(=O)CN1CCN(C(=O)CC(C)(C)C)CC1)OCO2 [compound 14] | 80 nM
15 | CC(=O)c1cc2c(cc1NC(=O)CN1CCN(C(=O)CC3CC3)CC1)OCO2 [compound 15] | 24 nM
16 | CC(=O)c1cc2c(cc1NC(=O)CN1CCN(C(=O)C3CCCC3)CC1)OCO2 [compound 16] | 29 nM
17 | CC(=O)c1cc2c(cc1NC(=O)CN1CCN(C(=O)C3CCCCC3)CC1)OCO2 [compound 17] | 150 nM
18 | CC(=O)c1cc2c(cc1NC(=O)CN1CCN(C(=O)CO)CC1)OCO2 [compound 18] | 216 nM
19 | COCC(=O)N1CCN(CC(=O)Nc2cc3c(cc2C(C)=O)OCO3)CC1 [compound 19] | 60 nM
20 | CC(=O)c1cc2c(cc1NC(=O)CN1CCN(C(=O)COC(C)C)CC1)OCO2 [compound 20] | 170 nM
21 | COCCOCC(=O)N1CCN(CC(=O)Nc2cc3c(cc2C(C)=O)OCO3)CC1 [compound 21] | 179 nM
22 | CC(=O)c1cc2c(cc1NC(=O)CN1CCN(C(=O)C3CCCCO3)CC1)OCO2 (stereo not shown) [compound 23] | 18 nM

Row | Structure (SMILES) | IC50
23 | CC(=O)c1cc2c(cc1NC(=O)CN1CCN(C(=O)C3CCOCC3)CC1)OCO2 [compound 24] | 336 nM
24 | CC(=O)c1cc2c(cc1NC(=O)CN1CCN(C(=O)C3CCN(C)CC3)CC1)OCO2 [compound 25] | 4360 nM
25 | CC(=O)c1cc2c(cc1NC(=O)CN1CCN(C(=O)CN3CCCC3)CC1)OCO2 [compound 27] | 176 nM
26 | CC(=O)c1cc2c(cc1NC(=O)CN1CCN(C(=O)CN3CCOCC3)CC1)OCO2 [compound 28] | 107 nM
27 | CCOC(=O)N1CCN(CC(=O)Nc2cc3c(cc2C(C)=O)OCO3)CC1 [compound 29] | 311 nM
28 | CC(=O)c1cc2c(cc1NC(=O)CN1CCN(C(=O)OC(C)C)CC1)OCO2 [compound 30] | 40 nM
29 | CC(=O)c1cc2c(cc1NC(=O)CN1CCN(C(=O)Oc3ccccc3)CC1)OCO2 [compound 31] | 262 nM
30 | CC(=O)c1cc2c(cc1NC(=O)CN1CCN(C(=O)NCc3ccccc3)CC1)OCO2 [compound 32] | 21 nM
31 | CC(=O)c1cc2c(cc1NC(=O)CN1CCN(C(=O)Nc3ccccc3)CC1)OCO2 [compound 33] | 50 nM
32 | CC(=O)c1cc2c(cc1NC(=O)CN1CCN(C(=O)c3ccccc3)CC1)OCO2 [compound 34] | 20 nM
33 | CC(=O)c1cc2c(cc1NC(=O)CN1CCN(C(=O)c3cccs3)CC1)OCO2 [compound 35] | 40 nM
34 | CC(=O)c1cc2c(cc1NC(=O)CN1CCN(C(=O)c3ccco3)CC1)OCO2 [compound 36] | 4 nM
35 | CC(=O)c1cc2c(cc1NC(=O)CN1CCN(C(=O)c3ccsc3)CC1)OCO2 [compound 37] | 23 nM
36 | CC(=O)c1cc2c(cc1NC(=O)CN1CCN(C(=O)c3cccc(O)c3)CC1)OCO2 [compound 38] | 50 nM
37 | CC(=O)c1cc2c(cc1NC(=O)CN1CCN(C(=O)c3ccncc3)CC1)OCO2 [compound 39] | 70 nM
38 | CC(=O)c1cc2c(cc1NC(=O)CN1CCN(C(=O)c3ccccc3O)CC1)OCO2 [compound 40] | 80 nM
39 | COc1ccccc1C(=O)N1CCN(CC(=O)Nc2cc3c(cc2C(C)=O)OCO3)CC1 [compound 41] | 40 nM
40 | CC(=O)c1cc2c(cc1NC(=O)CN1CCN(C(=O)c3cccnc3)CC1)OCO2 [compound 42] | 60 nM
41 | CC(=O)c1cc2c(cc1NC(=O)CN1CCN(C(=O)c3ccc(O)cc3)CC1)OCO2 [compound 43] | 80 nM
42 | CC(=O)c1cc2c(cc1NC(=O)CN1CCN(C(=O)c3ccccc3F)CC1)OCO2 [compound 44] | 50 nM
43 | CC(=O)c1cc2c(cc1NC(=O)CN1CCN(C(=O)c3ccc(F)cc3)CC1)OCO2 [compound 45] | 28 nM

Row | Structure (SMILES) | IC50
44 | CC(=O)c1cc2c(cc1NC(=O)CN1CCN(C(=O)c3cccc(F)c3)CC1)OCO2 [compound 46] | 26 nM
45 | COc1ccc(C(=O)N2CCN(CC(=O)Nc3cc4c(cc3C(C)=O)OCO4)CC2)cc1 [compound 47] | 21 nM
46 | COc1cccc(C(=O)N2CCN(CC(=O)Nc3cc4c(cc3C(C)=O)OCO4)CC2)c1 [compound 48] | 13 nM
47 | CC(=O)c1cc2c(cc1NC(=O)CN1CCN(C(=O)c3ccccn3)CC1)OCO2 [compound 49] | 100 nM
48 | CC(=O)c1cc2c(cc1NC(=O)CN1CCN(C(=O)c3cccc(CO)c3)CC1)OCO2 [compound 50] | 402 nM
49 | COCc1cccc(C(=O)N2CCN(CC(=O)Nc3cc4c(cc3C(C)=O)OCO4)CC2)c1 [compound 51] | 234 nM
50 | CC(=O)c1cc2c(cc1NC(=O)CN1CCN(C(=O)Cc3ccccc3)CC1)OCO2 [compound 52] | 51 nM
51 | CC(=O)c1cc2c(cc1NC(=O)CN1CCN(C(=O)Cc3ccccc3O)CC1)OCO2 [compound 53] | 18 nM
52 | COc1ccccc1CC(=O)N1CCN(CC(=O)Nc2cc3c(cc2C(C)=O)OCO3)CC1 [compound 54] | 24 nM
53 | CC(=O)c1cc2c(cc1NC(=O)CN1CCN(C(=O)Cc3ccccc3F)CC1)OCO2 [compound 55] | 70 nM
54 | CC(=O)c1cc2c(cc1NC(=O)CN1CCN(C(=O)Cc3cccnc3)CC1)OCO2 [compound 56] | 80 nM
55 | CC(=O)c1cc2c(cc1NC(=O)CN1CCN(C(=O)Cc3cccc(O)c3)CC1)OCO2 [compound 57] | 100 nM
56 | COc1cccc(CC(=O)N2CCN(CC(=O)Nc3cc4c(cc3C(C)=O)OCO4)CC2)c1 [compound 58] | 60 nM
57 | CC(=O)c1cc2c(cc1NC(=O)CN1CCN(C(=O)Cc3cccc(F)c3)CC1)OCO2 [compound 59] | 200 nM
58 | CC(=O)c1cc2c(cc1NC(=O)CN1CCN(C(=O)Cc3ccncc3)CC1)OCO2 [compound 60] | 80 nM
59 | CC(=O)c1cc2c(cc1NC(=O)CN1CCN(C(=O)Cc3ccc(O)cc3)CC1)OCO2 [compound 61] | 50 nM
60 | COc1ccc(CC(=O)N2CCN(CC(=O)Nc3cc4c(cc3C(C)=O)OCO4)CC2)cc1 [compound 62] | 200 nM
61 | CC(=O)c1cc2c(cc1NC(=O)CN1CCN(C(=O)Cc3ccc(F)cc3)CC1)OCO2 [compound 63] | 400 nM
62 | CC(=O)c1cc2c(cc1NC(=O)CN1CCN(C(=O)Cc3ccco3)CC1)OCO2 [compound 64] | 100 nM

same assay, conditions: other T2R54 bitter blockers (table after b418); read-out: hT2R54 IC50

Row | Structure (SMILES) | IC50
63 | Cc1cc(N2CCC(C(N)=O)CC2)nc(-c2ccccc2)n1 [A, 1-(6-Methyl-2-phenylpyrimidin-4-yl)piperidine-4-carboxamide] | 2900 nM
64 | COc1cc2ncnc(NCc3cccc4c3OCO4)c2cc1OC [B] | 1800 nM
